Measured values as given in patent US10072011B2, “Substituted bridged urea analogs as sirtuin modulators” (GlaxoSmithKline Intellectual Property (No.2) Limited, priority 2014, dated 2018).

Target: T1, SIRT1 (Homo sapiens, UniProt Q96EB6)
T1 sequence (Q96EB6 1-747): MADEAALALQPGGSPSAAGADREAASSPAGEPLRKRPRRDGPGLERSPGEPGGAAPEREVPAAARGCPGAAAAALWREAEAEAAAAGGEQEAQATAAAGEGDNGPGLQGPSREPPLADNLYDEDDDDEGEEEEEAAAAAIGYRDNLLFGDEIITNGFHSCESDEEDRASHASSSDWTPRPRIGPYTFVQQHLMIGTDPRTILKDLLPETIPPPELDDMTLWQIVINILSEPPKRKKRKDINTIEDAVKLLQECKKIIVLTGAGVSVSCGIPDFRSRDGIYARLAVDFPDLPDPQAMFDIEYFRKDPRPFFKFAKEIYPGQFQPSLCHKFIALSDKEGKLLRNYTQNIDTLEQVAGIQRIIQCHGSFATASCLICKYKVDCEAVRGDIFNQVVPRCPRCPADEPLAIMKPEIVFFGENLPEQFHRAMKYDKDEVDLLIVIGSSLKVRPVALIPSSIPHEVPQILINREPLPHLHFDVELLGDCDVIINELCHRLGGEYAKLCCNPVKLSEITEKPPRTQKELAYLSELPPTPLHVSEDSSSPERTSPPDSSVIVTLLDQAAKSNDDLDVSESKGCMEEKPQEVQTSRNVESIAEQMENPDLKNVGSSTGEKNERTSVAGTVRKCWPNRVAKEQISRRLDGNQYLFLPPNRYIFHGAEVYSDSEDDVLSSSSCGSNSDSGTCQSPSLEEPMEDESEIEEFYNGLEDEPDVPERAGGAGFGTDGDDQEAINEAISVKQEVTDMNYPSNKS
Assay: Trp mass spectrometry assay of SIRT1 activation (Ac-R-H-K-K(Ac)-W-NH2 peptide)
Type: biochemical
Conditions: Trp peptide 0.5 μM, 120 μM βNAD+, 10 nM SIRT1, 25 min at 25° C.; for Emax: 25 min, relative to control (100%), read-out: TRP MAX RESP (percent maximum fold activation)
Procedure, shortened: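 N-terminal His-tagged human SIRT1, expressed in BL21(DE3) and purified, was incubated 25 min with an acetylated Trp peptide and NAD plus test compound at varying concentrations, then quenched with formic acid. OAADPR or deacetylated peptide was quantified by mass spectrometry versus compound-free control; EC1.5 is the concentration giving 50% activity increase, with percent maximum activation.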

## Cc1ncc(-c2ccnc(NC(=O)N3c4nc(C(=O)N[C@H](C)C(F)(F)F)ccc4N4CC[C@H]3C4)c2)o1 [Example 128, (4S)—N5-(4-(2-methyloxazol-5-yl)pyridin-2-yl)-N7-((R)-1,1,1-trifluoropropan-2-yl)-3,4-dihydro-1,4-methanopyrido[2,3-b][1,4]diazepine-5,7(2H)-dicarboxamide]
  Emax: > 150%
  TRP Activity (EC1.5, concentration of test compound that results in 150% activation of SIRT1): A (EC1.5<1 μM)

## COCC(NC(=O)c1ccc2c(n1)N(C(=O)Nc1ccccn1)[C@H]1CCN2C1)C1CC1 (single isomer, unassigned) [Example 60]
  TRP Activity (EC1.5, concentration of test compound that results in 150% activation of SIRT1): A (EC1.5<1 μM)

## C=CCNC(=O)c1ccc2c(n1)N(C(=O)Nc1ccccn1)[C@H]1CCN2C1 [Example 179, (4S)—N7-allyl-N5-(pyridin-2-yl)-3,4-dihydro-1,4-methanopyrido[2,3-b][1,4]diazepine-5,7(2H)-dicarboxamide]
  Emax: > 150%
  TRP Activity (EC1.5, concentration of test compound that results in 150% activation of SIRT1): A (EC1.5<1 μM)

## CC(C)(CO)NC(=O)c1ccc2c(n1)N(C(=O)Nc1ccccn1)[C@H]1CCN2C1 [Example 200, (4S)—N7-(1-hydroxy-2-methylpropan-2-yl)-N5-(pyridin-2-yl)-3,4-dihydro-1,4-methanopyrido[2,3-b][1,4]diazepine-5,7(2H)-dicarboxamide]
  Emax: > 150%
  TRP Activity (EC1.5, concentration of test compound that results in 150% activation of SIRT1): B (EC1.5 1-25 μM)

## O=C(NC1(C(F)(F)F)CC1)c1ccc2c(n1)N(C(=O)Nc1ccccn1)[C@H]1CCN2C1 [Example 241, (4S)—N5-(pyridin-2-yl)-N7-(1-(trifluoromethyl)cyclopropyl)-3,4-dihydro-1,4-methanopyrido[2,3-b][1,4]diazepine-5,7(2H)-dicarboxamide]
  Emax: > 150%
  TRP Activity (EC1.5, concentration of test compound that results in 150% activation of SIRT1): A (EC1.5<1 μM)

## CC[C@@H](C)NC(=O)c1ccc2c(n1)N(C(=O)Nc1ccccn1)[C@H]1CCN2C1 [Example 33, (4S)—N7-((R)-sec-butyl)-N5-(pyridin-2-yl)-3,4-dihydro-1,4-methanopyrido[2,3-b][1,4]diazepine-5,7(2H)-dicarboxamide]
  Emax: > 150%
  TRP Activity (EC1.5, concentration of test compound that results in 150% activation of SIRT1): A (EC1.5<1 μM)

## O=C(NCC(F)(F)F)c1ccc2c(n1)N(C(=O)Nc1ccc3[nH]c(=O)[nH]c3c1)[C@H]1CCN2C1 [Example 232, (4S)—N5-(2-oxo-2,3-dihydro-1H-benzo[d]imidazol-5-yl)-N7-(2,2,2-trifluoroethyl)-3,4-dihydro-1,4-methanopyrido[2,3-b][1,4]diazepine-5,7(2H)-dicarboxamide]
  Emax: < 150%
  TRP Activity (EC1.5, concentration of test compound that results in 150% activation of SIRT1): C (EC1.5>25 μM)

## CC(=O)Nc1ccnc(NC(=O)N2c3nc(C(=O)NCC(F)(F)F)ccc3N3CC[C@H]2C3)c1 [Example 167, (4S)—N5-(4-acetamidopyridin-2-yl)-N7-(2,2,2-trifluoroethyl)-3,4-dihydro-1,4-methanopyrido[2,3-b][1,4]diazepine-5,7(2H)-dicarboxamide]
  Emax: > 150%
  TRP Activity (EC1.5, concentration of test compound that results in 150% activation of SIRT1): A (EC1.5<1 μM)

## O=C(NCCC(F)(F)F)c1ccc2c(n1)N(C(=O)Nc1ccc(F)cn1)[C@H]1CCN2C1 [Example 79, (4S)—N5-(5-fluoropyridin-2-yl)-N7-(3,3,3-trifluoropropyl)-3,4-dihydro-1,4-methanopyrido[2,3-b][1,4]diazepine-5,7(2H)-dicarboxamide]
  Emax: > 150%
  TRP Activity (EC1.5, concentration of test compound that results in 150% activation of SIRT1): A (EC1.5<1 μM)

## O=C(NC1CC1)c1ccc2c(n1)N(C(=O)Nc1ccc(Cl)cn1)[C@H]1CCN2C1 [Example 67, (4S)—N5-(5-chloropyridin-2-yl)-N7-cyclopropyl-3,4-dihydro-1,4-methanopyrido[2,3-b][1,4]diazepine-5,7(2H)-dicarboxamide]
  Emax: > 150%
  TRP Activity (EC1.5, concentration of test compound that results in 150% activation of SIRT1): B (EC1.5 1-25 μM)

## Cc1ncc(-c2cc(NC(=O)N3c4nc(C(=O)NCC(F)(F)F)ccc4N4CC[C@H]3C4)ncn2)o1 [Example 169, (4S)—N5-(6-(2-methyloxazol-5-yl)pyrimidin-4-yl)-N7-(2,2,2-trifluoroethyl)-3,4-dihydro-1,4-methanopyrido[2,3-b][1,4]diazepine-5,7(2H)-dicarboxamide]
  Emax: > 150%
  TRP Activity (EC1.5, concentration of test compound that results in 150% activation of SIRT1): A (EC1.5<1 μM)

## C#Cc1ccnc(NC(=O)N2c3nc(C(=O)N[C@H](C)C(F)(F)F)ccc3N3CC[C@H]2C3)c1 [Example 299, (4S)—N5-(4-ethynylpyridin-2-yl)-N7-((R)-1,1,1-trifluoropropan-2-yl)-3,4-dihydro-1,4-methanopyrido[2,3-b][1,4]diazepine-5,7(2H)-dicarboxamide]
  Emax: < 150%
  TRP Activity (EC1.5, concentration of test compound that results in 150% activation of SIRT1): A (EC1.5<1 μM)

## O=C(N[C@H](c1ccccc1)C(F)(F)F)c1ccc2c(n1)N(C(=O)Nc1cc(OC[C@H](O)CO)ccn1)[C@H]1CCN2C1 [Example 184, (4S)—N5-(4-((R)-2,3-dihydroxypropoxy)pyridin-2-yl)-N7-((R)-2,2,2-trifluoro-1-phenylethyl)-3,4-dihydro-1,4-methanopyrido[2,3-b][1,4]diazepine-5,7(2H)-dicarboxamide]
  Emax: > 150%
  TRP Activity (EC1.5, concentration of test compound that results in 150% activation of SIRT1): A (EC1.5<1 μM)

## C[C@@H](NC(=O)c1ccc2c(n1)N(C(=O)Nc1cc(N3CCOCC3)ccn1)[C@H]1CCN2C1)C(F)(F)F [Example 307, (4S)—N5-(4-morpholinopyridin-2-yl)-N7-((R)-1,1,1-trifluoropropan-2-yl)-3,4-dihydro-1,4-methanopyrido[2,3-b][1,4]diazepine-5,7(2H)-dicarboxamide]
  Emax: < 150%
  TRP Activity (EC1.5, concentration of test compound that results in 150% activation of SIRT1): A (EC1.5<1 μM)

## O=C(NCC(F)(F)F)c1ccc2c(n1)N(C(=O)Nc1cc(OCCO)ccn1)[C@H]1CCN2C1 [Example 161, (4S)—N5-(4-(2-hydroxyethoxy)pyridin-2-yl)-N7-(2,2,2-trifluoroethyl)-3,4-dihydro-1,4-methanopyrido[2,3-b][1,4]diazepine-5,7(2H)-dicarboxamide]
  Emax: > 150%
  TRP Activity (EC1.5, concentration of test compound that results in 150% activation of SIRT1): A (EC1.5<1 μM)

## CC#CCNC(=O)c1ccc2c(n1)N(C(=O)Nc1ccccn1)[C@H]1CCN2C1 [Example 109, (4S)—N7-(but-2-yn-1-yl)-N5-(pyridin-2-yl)-3,4-dihydro-1,4-methanopyrido[2,3-b][1,4]diazepine-5,7(2H)-dicarboxamide]
  Emax: > 150%
  TRP Activity (EC1.5, concentration of test compound that results in 150% activation of SIRT1): A (EC1.5<1 μM)

## C[C@H](NC(=O)c1ccc2c(n1)N(C(=O)Nc1cc(-c3cnco3)ccn1)[C@H]1CCN2C1)C(F)(F)F [Example 127, (4S)—N5-(4-(oxazol-5-yl)pyridin-2-yl)-N7-((S)-1,1,1-trifluoropropan-2-yl)-3,4-dihydro-1,4-methanopyrido[2,3-b][1,4]diazepine-5,7(2H)-dicarboxamide]
  Emax: > 150%
  TRP Activity (EC1.5, concentration of test compound that results in 150% activation of SIRT1): B (EC1.5 1-25 μM)

## C[C@@H](O)CNC(=O)c1ccc2c(n1)N(C(=O)Nc1ccccn1)[C@H]1CCN2C1 [Example 203, (4S)—N7-((R)-2-hydroxypropyl)-N5-(pyridin-2-yl)-3,4-dihydro-1,4-methanopyrido[2,3-b][1,4]diazepine-5,7(2H)-dicarboxamide]
  Emax: > 150%
  TRP Activity (EC1.5, concentration of test compound that results in 150% activation of SIRT1): B (EC1.5 1-25 μM)
